The half-life is the time needed for the level to fall by half in the phase considered. As usually defined, the Ki is the equilibrium dissociation constant of an inhibitor or competing ligand from its target.

Values joined by “and” are separate entries in the source; they are usually repeats but may differ in a detail not shown here. Equal values may be shown once. “Also recorded” adds a separate entry of the source. Read-outs that look alike come from different tables or passages of the source. Square brackets hold non-standard residues; d marks the D form. Ends that are not written are not given here. Peptide text beside a SMILES is read from it. Phe(3-Br) = N[C@@H](Cc1cccc(Br)c1)C(=O)O; Dmt = Cc1cc(O)cc(C)c1C[C@H](N)C(=O)O

Data set [1] is described as follows: pH of the hydrogel. Type of data set: physicochemical.
A short description of data set [2]: Peptide gelation (tilted tube / inverted vial test, minimum gelation concentration). Type of data set: physicochemical. The following applies: for Minimum gelation concentration (w/v % in PBS): '/' = no gel. The method, then: The peptide gelation occurred by dissolving the TFA salt of the hexapeptide (2 mg) in 100 μL of PBS solution (pH 7.4) or physiological saline solution (0.9% NaCl).
Both peptides 2 and 4 (Table 1) gave a transparent gel in the same conditions (PBS 10 mM at pH 7.4 with a minimum gelation concentration of 24 mM; 2% w/v). To evaluate the mechanical properties of these hydrogels in a more quantitative manner, rheological experiments were performed. The viscoelastic properties of the peptide hydrogels were measured by dynamic rheometry at 37° C. This technique allowed to measure the storage modulus G′ (corresponding to the material's stiffness or rigidity), loss modulus G″ (corresponding to the viscous properties of the material) and loss factor tan (o) (ratio of G″ over G′). According to the Winter-Chambon criterion, a material reaches gelation in rheological terms if the phase angle o gets frequency-independent (F. Chambon et al., 1987 and H. Winter et al., 1987).
The peptide gelation occurred by dissolving the TFA salt of the peptide in 100 μL of PBS solution or physiological saline solution (0.9% NaCl) (pH 7.4).
The peptide gelation occurs by dissolving the TFA salt of the hydrogelator (1 or 2 mg) in 100 μL of aqueous media, PBS solution (pH 7.4) or physiological saline solution (0.9% NaCl). After successive vortexing and sonication, the gel is left to rest overnight at room temperature.
The hydrogelation was realized under physiologically relevant conditions, namely via the addition of phosphate-buffered saline (PBS) or sterile physiological saline solution (0.9% NaCl). The needed amount of hydrogelator was weighed in an Eppendorf® and solubilized by the addition of the above solutions. After vortex and sonication steps, the resulting solution was left at room temperature until gelation occurred. The gelation was qualitatively verified by the inverted vial test (if no gravitational flow was visible the gelation was considered successful). It can be noticed that all peptide hydrogelators depicted formed gels in PBS and saline solution at a concentration of 1 to 2% w/v.

Data set [3] is described as follows: in vitro. The following applies: human, plasma, 37° C., in solution.
Experimental: Human plasma was obtained from the Belgian Red Cross (Vlaams-Brabant, Leuven). […] Frozen (−20° C.) human plasma samples were thawed and thermostated to 37+2° C. Dissolution of the lyophilized peptide and consecutive dilutions were performed in water. […] On every time point 100 μL spiked plasma was transferred to a 500 μL Eppendorf tube and a protein crash was performed using 300 μL methanol+0.1% TFA (4° C.). Suspensions were vortexed for 15 seconds and placed at 4° C. for 30 to 45 minutes. After centrifugation at 14000 rpm for 20 minutes, 100 μL supernatant was diluted with 100 μL water in the injection vial. Injection samples were vortexed for 5 seconds and placed in the autosampler. […] Concentrations were calculated by use of the calibration curve and transferred to a semi-log chart presenting the log concentrations as a function of time. The optimum curve was used to calculate the peptide-half life. Calculations were performed using Microsoft® Office Professional 2010 Excel.
The nature of data set [4]: in vitro. The following applies: human, plasma.
Experimental: Human plasma was obtained from the Belgian Red Cross (Vlaams-Brabant, Leuven). Prior to the stability test, selectivity, stability of the compound in the injection solvent, linearity, accuracy and precision of the method were investigated. Frozen (−20° C.) human plasma samples were thawed and thermostated to 37±2° C. Dissolution of the lyophilized peptide and consecutive dilutions were performed in water. The resulting aqueous solutions of each peptide individually was spiked in human plasma (10:90 v/v) with final plasma concentrations of 9 μM.
On every time point 100 μL spiked plasma was transferred to a 500 μL Eppendorf tube and a protein crash was performed using the corresponding precipitation solvent (4° C.). Suspensions were vortexed for 15 s and placed at 4° C. for 30 to 45 min. After centrifugation at 18 625 g for 20 min, 100 μL supernatant was diluted with 100 μL water in the injection vial.
Injection samples were vortexed for 5 sand placed in the autosampler. […] Concentrations were calculated by use of the calibration curve and transferred to a semi-log chart presenting the log concentrations as a function of time. The optimum curve was used to calculate the peptide half-life. Calculations were performed using Microsoft® Office Professional 2010 Excel.
Data set [5] is described as follows: TEM / cryo-TEM fibre morphology of hydrogels. It is filed as physicochemical. The method, then: Formvar carbon-coated 400-mesh copper grids (Agar Scientific, Stansted, United Kingdom) were treated with plasma using an ELMO Glow discharge system to clean the grid surface and to render the carbon surface hydrophilic. Hydrogel samples were prepared 12 h in advance as described above. Small aliquots of sample (5 μL) were pipetted onto the carbon grids for adsorption. After 30 s, excess of sample was removed by using a Whatman 541 filter paper. The loaded grids were stained during 10 s with 1% uranyl formate after which the grids were air-dried. Samples were analysed using a JEOL JEM-1400 transmission electron microscope, operating at accelerating voltage of 120 kV. Images were recorded on a CMOS TemCam-F416 camera and accessory software of TVIPS.
200-mesh copper grids coated with perforated carbon film (Lacey carbon film: ProSci-Tech Old, Australia) were used and were glow discharged in nitrogen for 5 s immediately prior to use. Hydrogel samples were prepared 12 h in advance as described above. Small aliquots of sample (4 μL) were pipetted onto the carbon grids for adsorption. After 30 s, excess of sample was removed by using a Whatman 541 filter paper. The grid was then plunged into liquid ethane cooled by liquid nitrogen. Frozen grids were stored in liquid nitrogen until required. Samples were analysed using a Gatan 626 cryoholder and Tecnai 12 Transmission electron microscope, operating at accelerating voltage of 120 kV. Images were recorded using an FEI Eagle 4k×4k CCD camera.

Data set [6] deals with L929 (mouse fibroblast) cells. The data set is described as follows: Live/Dead cell viability assay on hydrogels (Example 5). It is filed as cell-based. The note with it: 24 h on hydrogel. How it is done:
L929 (mouse fibroblast) cells were obtained from ATCC® and maintained in Gibco®, MEM with GlutaMAX supplemented with 10% FBS (SAFC, Sigma), 1% Anti-Anti (100×, Gibco®) and 1% NEAA (100×, Gibco®). Cells were maintained on tissue culture treated polystyrene (TCPS) plates at 37° C. in a humified atmosphere containing 5% CO2 and 95% air. Cells were trypsinized, harvested and counted using a hemocytometer. The resulting cell suspension was diluted in Gibco® solution before addition to the hydrogels. For ease of handling and to produce homogeneous clear hydrogels, 100 μL of peptide hydrogels were prepared (in corresponding gelation conditions, see above) in Eppendorf tubes (0.5 ml) and transported using a 21G syringe to 96-well plates after simultaneously heating (60° C.) and mixing (900 rpm) using an Eppendorf ThermoMixer®. The hydrogels were left to set overnight in the wells at room temperature and were subsequently washed twice with 200 μL of Anti-Anti (100×, Gibco®) solution, 2 h each. After washing, media was removed and cells were seeded evenly over hydrogels. Cells were plated in duplicate on all hydrogels and control wells. Viability of cells on hydrogels was determined using the traditional Live/dead cell viability assay (Invitrogen) after culture durations of 24 h.
Plates were incubated in 5% CO2 at 37° C. for 1 day to allow cell attachment and spreading to occur. […]

The nature of data set [7]: Dynamic rheometry of hydrogels (storage modulus G′). It is filed as physicochemical.
Experimental: Dynamic rheometry measurements were performed on an AR-G2 rheometer (TA Instruments) equipped with electrically heated plates and a 10 mm-diameter aluminium parallel plate-plate geometry. Viscoelastic properties were measured by oscillatory frequency sweeps at 37° C. in the range between 0.01 and 10 Hz, using a controlled strain of 0.05%. Hydrogel samples were made 12 h in advance. A ring-shaped reservoir filled with a saturated NH4Cl solution was used as a solvent trap.
The conditions of data set [8]: for Hydrogel volume remaining: 2 w/v% in PBS, 150 μL s.c.
Experimental: ^111/n-labeling of DOTA-peptide—^111InCb (5 μl,±4 MBq) (Mallinckrodt) was added to 200 μl 1 mg/ml DOTA-peptide 6, dissolved in 0.2 M ammonium acetate buffer (NH4OAc) pH 5, and incubated for 30 min at 50° C. Radiochemical purity (>95%) was verified by ITIC using 0.1 M citrate buffer pH 5 as mobile phase. 200 μl of ^111In-peptide 6 was diluted up to 1 ml with phosphate buffered saline (PBS, 10 mM) and incorporated within the hydrogel as described below.
After sequential vortexing and sonication, hydrogels (2 w/v¾) were formed and let to rest overnight.
C57Bl/6J mice were purchased by Charles River (n=3 per group) and all experimental procedures were performed under 2.5% isoflurane anesthesia (Iso-vet). 150 μL (0.518±0.037 MBq) of the ^111In-labeled hydrogel (stability experiment) or 150 μL (1.702±0.777 MBq) of hydrogels loaded with ^111In-labeled cargos (cargo release experiment) were injected subcutaneously on the hind limb. For comparison, 150 μL of ^111In-labeled cargos not loaded into a hydrogel were also subcutaneously injected. Immediately after injection, at 1 h30, 3 h, 6 h, 12 h, 24 h, 48 h and 72 h, animals were subjected to a SPECT/CT scan. SPECT images were acquired on an e.cam^180 system (Siemens) equipped with two triple-pinhole collimators designed for ^111In (1.5 mm pinhole opening, 250 mm focal length, 47 mm radius of rotation). Images were acquired over 360° in 64 projections of 30 s into a 128×128 matrix and reconstructed using an iterative algorithm correcting for radioactive decay and allowing automatic fusion with CT images (based on six 57Co fiducial markers). […]
Maximum intensity projections (MIPs) were generated in Osirix Medical Software. Images were quantified using the software AMIDE (sourceforge.net). For the stability experiments, the size of the gel was determined by automatic delineation, for the cargo release experiments, the total radioactivity within a ROI drawn on the hind limb was calculated. Results were expressed as percentage of injected dose remaining in function of time. […]
In data set [9] the test system is L929 mouse fibroblasts. The data set is described as follows: Cytotoxicity, Live/Dead viability staining on hydrogels (Example 9). Type of data set: cell-based. The method, then: Hydrogels were prepared at 1, 2 or 3 mg/100 μL as duplicate in a 96-well ULA plate (Cat #CORN3474; Corning-Costar, 60 μL each well). The gels were photographed and pre-equilibrated before seeding with cells. For equilibration, gels were incubated at room temperature in 40 μL of L929 culture medium with double-strength Anti-Anti (Cat #15240062, GIBCO) for 2 h prior to seeding with cells. The equilibration medium was removed before cell seeding and retained to examine if the gels dissolved (even partially) or disintegrated into the culture medium. Next, […] mouse fibroblasts (ATCC) were seeded onto hydrogels at a concentration of 200,000 cells/ml in a volume of 50 μl. The cells were photographed immediately after seeding, observed by microscopy 2 h post-seeding and then observed and photographed at 24 h post-seeding. The cell culture medium consisted of MEM+GlutaMAX I (Cat #41090-036; GIBCO); 10% foetal bovine serum (Cat #12003C; SAFC, Sigma), 2× Anti-Anti (Cat #[…]) and 1× Non-Essential Amino Acids (Cat #41090-036; GIBCO).
Bright field microscopy was performed through use of a IX71 inverted microscope with NIS-Elements F3.0 imaging software (Olympus). The TE2000 Eclipse fluorescent microscope with NIS-Elements AR3.2 software (Nikon) was used for fluorescence imaging microscopy. Automated cell counting was performed on the NC-200 NucleoCounter using proprietary lysis and stabilising reagents and cassettes (ChemoMetec).
The viability and distribution of cells was assessed using a LIVE/DEAD Viability/Cytotoxicity Kit *for Mammalian cells* (Live-Dead Kit), (Cat #13224; Molecular Probes). Briefly, a working solution of live/dead solution was made as per manufacturer's instructions by adding 1.25 μl of Calcein AM (solution A) to 2.5 ml of pre-warmed PBS. The solution was thoroughly mixed by vortex and 2.5 μl of Ethidium homodimer (solution B), was added before vortexing a second time to mix. Excess medium was removed and the gels rinsed with 20 μl of warm PBS before a 40 μl of Live/Dead kit working solution was added to each well. The plate was incubated in a 37° C. cell culture incubator for 20 min before viewing using a fluorescent microscope. Green fluorescence was emitted from the cytoplasm of viable cells (excitation/emission ˜495 nm/˜515 nm) while dead cell nuclei fluoresced red (excitation/emission ˜495/˜635 nm) allowing a distinction to be made between viable and dead cells.

For data set [10], the target named is DOR (Homo sapiens, UniProt P41143). The data set is described as follows: Binding tests (Ki) DOR.
Data set [11] is described as follows: Stability and degradability of biogels in human plasma (Example 8). It is filed as in vitro ADME. The note with it: human plasma, 37° C.; for half-life at 14 μM: human, in solution. How it is done:
After centrifugation at 14 000 rpm for 15 minutes, 100 μL supernatant was diluted with 100 μL milliQ water in the injection vial. Injection samples were vortexed for 5 seconds and were analyzed by HPLC. […] Calculations were performed using Microsoft® Office Professional 2010 Excel.

The target of data set [12] is KOR (Homo sapiens, UniProt P41145). The data set is described as follows: Binding tests (Ki) KOR.
Data set [13] concerns the target MOR (Homo sapiens, UniProt P35372). The data set is described as follows: Binding tests (Ki) MOR.

MOR, sequence (P35372 whole entry): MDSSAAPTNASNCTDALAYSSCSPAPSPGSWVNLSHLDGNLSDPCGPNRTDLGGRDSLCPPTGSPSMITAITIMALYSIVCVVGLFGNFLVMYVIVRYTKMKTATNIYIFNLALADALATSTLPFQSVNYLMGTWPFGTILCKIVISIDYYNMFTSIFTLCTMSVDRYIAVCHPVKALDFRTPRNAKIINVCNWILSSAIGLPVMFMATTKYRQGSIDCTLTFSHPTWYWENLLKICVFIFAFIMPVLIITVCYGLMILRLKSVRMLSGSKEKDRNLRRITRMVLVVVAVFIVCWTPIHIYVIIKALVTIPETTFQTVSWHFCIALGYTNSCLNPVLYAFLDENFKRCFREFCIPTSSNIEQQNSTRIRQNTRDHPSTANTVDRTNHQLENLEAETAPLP
KOR, sequence (P41145 whole entry): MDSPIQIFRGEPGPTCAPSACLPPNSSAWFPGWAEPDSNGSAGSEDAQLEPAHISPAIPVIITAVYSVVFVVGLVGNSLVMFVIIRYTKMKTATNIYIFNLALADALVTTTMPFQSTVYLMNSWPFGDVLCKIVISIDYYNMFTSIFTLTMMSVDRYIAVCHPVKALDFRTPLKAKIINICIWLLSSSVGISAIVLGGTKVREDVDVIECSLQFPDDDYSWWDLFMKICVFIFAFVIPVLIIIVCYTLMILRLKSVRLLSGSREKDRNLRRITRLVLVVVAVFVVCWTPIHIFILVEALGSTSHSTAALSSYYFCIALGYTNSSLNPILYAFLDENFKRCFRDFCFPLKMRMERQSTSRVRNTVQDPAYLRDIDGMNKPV
DOR, sequence (P41143 whole entry): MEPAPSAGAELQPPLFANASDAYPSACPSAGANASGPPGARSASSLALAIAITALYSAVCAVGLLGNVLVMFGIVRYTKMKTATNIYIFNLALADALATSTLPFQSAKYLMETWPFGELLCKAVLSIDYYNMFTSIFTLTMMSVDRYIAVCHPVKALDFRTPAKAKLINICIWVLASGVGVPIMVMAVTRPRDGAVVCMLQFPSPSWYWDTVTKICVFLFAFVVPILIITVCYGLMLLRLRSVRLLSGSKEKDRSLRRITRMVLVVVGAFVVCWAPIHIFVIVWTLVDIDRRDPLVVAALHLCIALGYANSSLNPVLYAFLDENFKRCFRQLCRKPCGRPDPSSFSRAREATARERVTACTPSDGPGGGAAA

Take “FEFQFK-NH2 [peptide 2, H-Phe-Glu-Phe*-Gln-Phe-Lys-NH2]”: the “pH of the gel” value in data set [1] is reported as 4.02. In data set [2] (25G needle used for s.c. injections), the Re-gelation after injection result was “immediate re-gelation after injection through a 25G needle”. In addition, the Minimum gelation concentration in data set [2] (PBS 10 mM, pH 7.4) was 24 mM; in [2] (PBS 10 mM, pH 7.4 (text, Examples 1-2)), 2 % w/v. In data set [2], the “Minimum gelation concentration (w/v % in PBS)” value was determined as 2 w/v %. The molecule also gave a half-life at 72 μM in [3] of approximately 15 min. Moreover, the half-life at 9 μM in [4] was approximately 15 min. In data set [5] (TEM, Example 2), the Fibre thickness entry is given as “ca. 10 nm”. Moreover, the Fibre diameter in data set [5] (cryoTEM and negative staining, Example 9) is given as approximately 5 nm. Besides, the “Cytotoxicity (Live/Dead cell viability, qualitative)” value in [6] is “the majority of cells were green fluorescent and thus, were viable; also recorded: noncytotoxic”. Further, the “Storage modulus G′” value in [7] (2% w/v in PBS, 37° C., value at 1 Hz) was “ca. 8000 Pa”. Besides, the Hydrogel volume remaining amounted to 24% in data set [8] (12 h) and 9% in [8] (72 h post-injection). Besides, in data set [8] (after subcutaneous injection of the hydrogel), the “Time within which most degradation occurred” value is not above 12 h. Also, in [9], the Cytotoxicity in vitro result is reported as “showed no cytotoxicity in vitro”.

Regarding `Cc1cc(O)cc(C)c1C[C@H](N)C(=O)N1CCC[C@H]1C(=O)N[C@@H](Cc1c[nH]c2ccccc12)C(=O)N[C@@H](Cc1ccccc1)C(=O)N[C@@H](CCC(N)=O)C(=O)N[C@@H](Cc1ccccc1)C(=O)N[C@@H](CCC(N)=O)C(=O)N[C@@H](Cc1ccccc1)C(=O)N[C@@H](CCCCN)C(N)=O` [CM-58, Dmt-Pro-Trp-Phe-Gln-Phe*-Gln-Phe-Lys-NH2] (H-[Dmt]PWFQFQFK-NH2; N-terminus assumed), the results for the inhibitory constant (Ki) in [10], in data set [12] and in [13] were 15 nM, 120 nM and 7.5 nM, respectively. For the same molecule, the half-life at 14 μM in data set [11] is approximately 12 min.

For the molecule “FEFQFK [peptide 1, H-Phe-Glu-Phe*-Gln-Phe-Lys-OH]”, in data set [1] (listed as MBG-1), the “pH of the gel” value was < 4 and 3.49. Further, the Minimum gelation concentration in [2] (in mQ:PBS 50:50) was 1 (in mQ:PBS w/v %. In data set [3], the half-life at 72 μM was approximately 2 min.

Regarding “H-Phe(3Br)-Gln-Phe(3Br)-Gln-Phe(3Br)-Lys-NH2 (H-[Phe(3-Br)]Q[Phe(3-Br)]Q[Phe(3-Br)]K-NH2) [peptide 33]”, in [2], the “Minimum gelation concentration (w/v % in PBS)” value was 1-2 w/v %. Moreover, in data set [7], the “Gel strength compared to the non-halogenated peptide” value was “stronger gels”.

With `Cc1cc(O)cc(C)c1C[C@H](N)C(=O)N1CCC[C@H]1C(=O)N[C@@H](Cc1ccccc1)C(=O)N[C@@H](Cc1ccccc1)C(=O)N[C@@H](CCC(N)=O)C(=O)N[C@@H](Cc1ccccc1)C(=O)N[C@@H](CCC(N)=O)C(=O)N[C@@H](Cc1ccccc1)C(=O)N[C@@H](CCCCN)C(N)=O` [CM-56, Dmt-Pro-Phe-Phe-Gln-Phe*-Gln-Phe-Lys-NH2] (H-[Dmt]PFFQFQFK-NH2; N-terminus assumed), the inhibitory constant (Ki) in [10] was 176 nM; in [12], 337 nM; in data set [13] it was 65 nM.

With `Cc1cc(O)cc(C)c1C[C@H](N)C(=O)N[C@H](CCCCN)C(=O)N[C@@H](Cc1ccccc1)C(=O)N[C@@H](Cc1ccccc1)C(=O)N[C@@H](CCC(=O)O)C(=O)N[C@@H](Cc1ccccc1)C(=O)N[C@@H](CCC(N)=O)C(=O)N[C@@H](Cc1ccccc1)C(=O)N[C@@H](CCCCN)C(N)=O` [CM-53, Dmt-DLys-Phe-Phe-Glu-Phe*-Gln-Phe-Lys-NH2] (H-[Dmt][dK]FFEFQFK-NH2; N-terminus assumed), the affinity in data set [10] corresponds to a Ki of 24 nM. In data set [11], the “Time at which degradation of the heptapeptide into the N-terminal pentapeptide started” value was determined as 7.5 min, the “Time at which degradation of the pentapeptide into tripeptide was observed” value was 60 min, the “Time of appearance of the heptapeptide (loss of Phe-Lys-NH2)” value came out at 2.5 min and the half-life at 14 μM is approximately 18 min. The affinity in data set [12], expressed as Ki, was 337 nM. The Ki in data set [13] is 7.4 nM.

The values are drawn from patent US12383628B2 (priority 2016, dated 2025).
